Experiments:
[1] = Dispersibility of a basic compound in a suspension; type: physicochemical; conditions: suspension with DL-malic acid, neutralized with NaOH (Examples 3-1, 4, 5)
Description: 50 g of PVP K30 was dissolved to 800 g of purified water. These aqueous solution were acidified by DL-Malic acid. The compound (I-1) was suspended in the acidic solution under stirring. The suspension was neutralized with 115 g of 13% NaOH aqueous solution to give a suspension. In place of the compound (I-1) in Example 3-1, pindolol was used. In place of the compound (I-1) in Example 3-1, noscapine was used. Dispersibility of the compound (I-1) in an acidic suspension obtained in Example 3-1 to 3-4 including various kinds of acids was examined. Dispersibility was observed by the naked eyes at the time of preparation of an suspension. Dispersibility of active ingredient in the suspension obtained in Example 3-1, 4 and 5 was examined in accordance with Experiment 4.

[2] = Dispersibility of active ingredient in acidic suspension with various kinds of acids; type: physicochemical; conditions: at preparation
Description: 50 g of PVP K30 was dissolved to 800 g of purified water. These aqueous solution were acidified by DL-Malic acid. The compound (I-1) was suspended in the acidic solution under stirring. The suspension was neutralized with 115 g of 13% NaOH aqueous solution to give a suspension. In place of malic acid in Example 3-1, citric acid was used. In place of malic acid in Example 3-1, phosphoric acid was used. No acid was used. Dispersibility of the compound (I-1) in an acidic suspension obtained in Example 3-1 to 3-4 including various kinds of acids was examined. Dispersibility was observed by the naked eyes at the time of preparation of an suspension.

| Dispersibility of drug substance [1] | Dispersibility of drug substance ([2]; suspension with citric acid (Example 3-2)) | Dispersibility of drug substance ([2]; suspension with malic acid (Example 3-1)) | Dispersibility of drug substance ([2]; suspension with no acid (Reference Example 3-4)) | Dispersibility of drug substance ([2]; suspension with phosphoric acid (Example 3-3)) | Structure (SMILES) |
| --- | --- | --- | --- | --- | --- |
| Good | Good | Good | Formation | Good | CC(C)c1nc(COC(N)=O)n(Cc2ccncc2)c1Sc1cc(Cl)cc(Cl)c1 [Compound (I-1), 5-(3,5-dichlorophenyl)thio-4-isopropyl-1-(4-pyridyl)methyl-1H-imidazol-2-ylmethyl carbamate] |
| Good |  |  |  |  | COc1ccc2c(c1OC)C(=O)O[C@@H]2[C@H]1c2c(cc3c(c2OC)OCO3)CCN1C [Noscapine, noscapine] |
| Good |  |  |  |  | CC(C)NCC(O)COc1cccc2[nH]ccc12 (stereo not shown) [Pindolol, pindolol] |
